The values below are quoted from earlier work in patent US20210023023A1, “LIPOSOMAL NUTRACEUTICAL COMPOSITIONS AND METHODS OF MAKING THE SAME” (VASAYO, LLC, priority 2019, published 2021).

For the data set the following is noted: in studies.

Turning to `C=C(C)[C@@H]1CCC(C)=C[C@H]1c1c(O)cc(CCCCC)cc1O` [CBD, cannabidiol], the “anti-inflammatory effects, potency relative to aspirin” value is “several hundred times more potent than aspirin”.
